The values below come from US10369124B2, “Dendrimer compositions and their use in treatment of diseases of the eye” (The Johns Hopkins University, priority 2014, dated 2019).

Data set [1] has as its system Iba-1+ microglia/macrophages in retina. Nature of the data set: Retinal biodistribution of D-Cy5 by immunohistochemistry and confocal microscopy in ischemia/reperfusion (I/R) injury. The note with it: mouse, in vivo. As for the experimental part:
Animals & Ischemia reperfusion (I/R) injury. All procedures involving the animals conformed to the ARVO Statement for the Use of Animals in Ophthalmic and Vision Research. BALB/c albino mice, each weighing ˜25 grams, housed in Wilmer animal facility at Johns Hopkins were used for transport as well as I/R studies. All surgeries were performed under ketamine (100 mg/Kg) and Xylazine (10 mg/kg) peritoneal anaesthesia. Six mice were used in each group at each time point. I/R injury was performed in the left eye by following the procedure described elsewhere. Briefly, the anterior chamber was cannulated with 30 gauze needle attached to a line infusing saline. The saline system is mounted on to a custom-made saline reservoir and elevated to certain height (calibrated to 90 mm Hg). The IOP was elevated to 90 mm Hg for 90 minutes and I/R injury and shut off of choroidal circulation was evidenced by blanching of the posterior segment via fundus examination through the operating microscope. After ischemia, the needle was immediately withdrawn for immediate blood reperfusion. The right eye had no I/R injury and served as control.
Dendrimer injection and Animal sacrifice. Six days post I/R injury, BALB/c mice were injected with dendrimer either intravitreally or intravenously. […]
Immunohistochemistry and confocal microscopy. […] Sections were analysed on a Zeiss 510 confocal microscope. […]

A short description of data set [2]: Quantitative biodistribution of D-Cy5 in vital organs by fluorescence spectroscopy (FLS). The note with it: IV. Format: in vivo, BALB/c mice. As for the experimental part:
Biodistribution analysis of D-Cy5 in vital organs. Twelve BALB-C mice weighing ˜25 gr BW were used for this study. Four animals were sacrificed at each time point: 24 hours, 72 hours and 21 days. Each mouse was injected via femoral vein with 600 μg of D-Cy5 in 100 μL of sterile PBS. At respective time point, the animals were euthanized and vital organs (heart, lungs, spleen, kidney, liver and eyes) were harvested immediately and organ wet weights were noted. Organs were snap frozen on dry ice, and stored at −80° C. until analysis. Upon analysis, the tissues were thawed and approximately 100-150 mg of tissue were measured and homogenized with 1 ml of MeOH in low DNA binding tubes (Eppendorf AG, Hamburg, Germany) using stainless steel bead and tissue homogenizer (Tissuelyzer LT, QIAGEN, Hilden, Germany) resulting in a pulpy tissue suspension. The suspension was sonicated for 30 minutes and appropriate volumes containing 100 mg of tissue were placed in different low DNA binding vials and diluted with methanol to 1 ml so that the same amount of tissue and same volume was analyzed for each sample. The samples were centrifuged at 10,000 rpm for 10 minutes at 4° C. resulting in supernatants, which were subjected to fluorescence spectroscopy (FLS).
Quantitative biodistribution of D-Cy5 in vital organs. Quantitative biodistribution in vital organs (liver, kidney, spleen, heart, lungs and serum) and kinetics of D-Cy5 injected intravenously into animals with I/R injury was assessed using FLS (fluorescence spectroscopy) method. For analysis, weight of tissues was measured before being homogenized and D-Cy5 was extracted using methanol as described previously by Lesniak et al. (Molecular pharmaceutics 10 (12), 4560-4571). The D-Cy conjugates were intact stable in human plasma at 37° C. and in vivo, and also the applied methanol extraction protocol yielded best recovery of 96%. The methanol extracts were subjected to fluorescence measurements for emission values using fluorescence spectrophotometer. […]

Data set [3] has as its system choroidal neovascularization (CNV). Nature of the data set: CNV area in lipid (HpODE) injected CNV rat model, choroidal flat mounts. The class given is in vivo, SD rats. The note with it: systemic, 20 mg/kg on NAC basis, assessed Day 10.
Method: CNV rat model. Male SD rats of ˜300 grams each were chosen for this study. Lipid 3(S)-hydroperoxy-9Z,11E-octadecadienoic acid (HpODE) (Cayman Chemicals, Michigan, USA.) was dissolved in cold borate buffer at a concentration of 500 μg/33 μL. Two μL of lipid was injected sub-retinal on day 1 forming a bleb in retina. By day 3 the lipid bleb was gone and retinal degeneration began. At day 7 post-lipid injection, neovascularization from choroid (CNV) begins to form and inflammation occurs in retina and choroid as well as neovascularization in retina (RNV). This model causes damage to both choroid and retina and has characteristics of both dry and wed AMD forms (FIG. 12A).
Effect of N-acetal-Cysteine (NAC) on CNV model. A combination of D-NAC (dendrimer-NAC; 10 mg/kg on a NAC basis) and 6 mg of D-Cy5 were injected intravenously via penile vein on day 3 post lipid injection and animals were sacrificed on day 7 post injection. The animals injected with D-Cy5 and PBS served as controls. […] The confocal images choroids of D-NAC treated and control groups were analyzed for CNV area measurements using Image-J software. […]
D-NAC was administered on Day 3 (two days after lipid administration), and on day 5 and day 7 at 20 mg/kg on a NAC basis. […] CNV areas were assessed using morphometric analysis (yellow delineation) in Image-J software. […] Values were analyzed using Mann-Whitney t-test with n=12 and P<0.001
Data set [4] has as its system IL-1β, IL-6, MCP-1, TNFα, IL-10. Nature of the data set: Retina cytokine levels by ELISA in CNV rat model. Format: in vivo, SD rats. The note with it: n=8/group.
Method: (§1) CNV rat model. Male SD rats of ˜300 grams each were chosen for this study. Lipid 3(S)-hydroperoxy-9Z,11E-octadecadienoic acid (HpODE) (Cayman Chemicals, Michigan, USA.) was dissolved in cold borate buffer at a concentration of 500 μg/33 μL. Two μL of lipid was injected sub-retinal on day 1 forming a bleb in retina.
The effect of D-NAC on retinal inflammation was assessed in a blinded manner, by measuring proinflammatory (IL-1β, IL-6, MCP-1, and TNFα) and anti-inflammatory (IL-10) cytokine levels.
Data set [5] has the same test system. Kind of data set: Choroid cytokine levels by ELISA in CNV rat model. Format: in vivo, SD rats. Particulars: n=8 choroids/group.
Method: FIGS. 16A-16C depict that the choroids from the different groups were analyzed using ELISA (n=8 choroids/group).
as §1
The effect of D-NAC choroidal inflammation was assessed in a blinded manner, by measuring proinflammatory (IL-1β, IL-6, MCP-1-monocyte chemoattractant, and TNFα) and anti-inflammatory cytokine levels (IL-10).

Each structure is given as a SMILES string.

On to `CCN1/C(=C/C=C/C=C/C2=[N+](CCCCCC(=O)O)c3ccc(S(=O)(=O)O)cc3C2(C)C)C(C)(C)c2cc(S(=O)(=O)[O-])ccc21` [free Cy5], for which the retinal clearance entry in data set [1] is given as “completely cleared”. In data set [1] (iv), the retinal clearance result is recorded as “cleared”. In data set [2] (24 hours), the accumulation in kidney is 0.82±2.93 % of injected dose (ID)/organ and the “fluorescent signal in other organs (than kidney)” value was “could not detect any fluorescent signals”. For the same compound, in data set [2] (72 hours), the “level in any of the organs” value is listed as “not detectable”.
For `CC(=O)N[C@@H](CS)C(=O)O` [free NAC, N-acetyl cysteine], the “effect on CNV areas compared to PBS” value in data set [3] is listed as “some decrease that was not significant”. In data set [4], the “proinflammatory cytokines in retina” value was “not effective”. In addition, the “proinflammatory cytokines in choroid” value in data set [5] is “not effective”.
